The source of these data is ChEMBL document CHEMBL1152923, “ent-Kaurane diterpenoids from Isodon pharicus” (J Nat Prod, 2009).

Molecules are shown by their SMILES. Where only a bound is given, the exact number is not on record here.

What all share (assay type): functional, cell-based
In test [1] the test system is PC-3. Nature of the test: Cytotoxicity against human PC3 cells after 48 hrs by SRB method. As to conditions: PC-3, 48 h. Background: In SRB staining, fixed cells bind dye roughly in proportion to their protein.
The subject of test [2] is NB-4. Briefly: Cytotoxicity against human NB4 cells after 48 hrs by SRB method. As to conditions: NB-4, 48 h.
Test [3] has as its system SH-SY5Y. Briefly: Cytotoxicity against human SH-SY5Y cells after 48 hrs by SRB method.
Test [4] concerns A549. Nature of the test: Cytotoxicity against human A549 cells after 48 hrs by SRB method. As to conditions: A549, 48 h.
In test [5] the test system is MCF7. Briefly: Cytotoxicity against human MCF7 cells after 48 hrs by SRB method. Particulars: MCF7, 48 h.

What is called IC50 is the concentration that inhibits the measured activity by half. Higher therefore signals weaker potency. For `C=C1C(=O)[C@]23[C@H](O)[C@H]1C(=O)C[C@H]2[C@]1(C)CC[C@H](OC(C)=O)C(C)(C)[C@H]1C[C@H]3OC(C)=O`, the IC50 in test [1], in test [2], in test [3], in test [4] and in test [5] was over 10 µM in each case.

In the case of `C=C1C(=O)[C@@]23[C@H](O)C[C@@H]4C(C)(C)[C@H](O)CC[C@@]4(C)[C@@H]2C[C@H](OC(C)=O)[C@@H]1[C@H]3O`, the IC50 in test [1] is over 10 µM; in test [2], 8.32 µM; in test [3], 8.12 µM; in test [4], over 10 µM; in test [5], over 10 µM.

Consider `C=C1[C@H]2[C@@H](OC(C)=O)[C@@]3(CC[C@@H]4C(C)(C)[C@@H](O)CC[C@@]4(C)[C@@H]3C[C@@H]2O)[C@@H]1O`, for which the IC50 in test [1], in test [2], in test [3], in test [4] and in test [5] was over 10 µM each time.

`COC[C@@H]1C(=O)[C@@]23[C@H](O)C[C@@H]4C(C)(C)[C@@H](OC(C)=O)CC[C@@]4(C)[C@@H]2CC(=O)[C@@H]1[C@H]3O`: the IC50 was 7.42 µM in test [1]; 8.74 µM in test [2]; over 10 µM in test [3]; over 10 µM in test [4]; over 10 µM in test [5].

For the compound `C=C1C(=O)[C@@]23[C@H](O)C[C@@H]4C(C)(C)[C@@H](OC(C)=O)C[C@H](O)[C@@]4(C)[C@@H]2C[C@H](O)[C@@H]1[C@H]3O`, the IC50 in test [1], in test [2], in test [3], in test [4] and in test [5] was over 10 µM in each case.

Consider `C=C1C(=O)[C@@]23[C@@H]4OC(C)(C)O[C@@H]2C[C@@H]2C(C)(C)[C@H](O)CC[C@@]2(C)[C@@H]3C[C@H](O)[C@@H]14`, for which the IC50 is over 10 µM in test [1]; 3.56 µM in test [2]; over 10 µM in test [3]; 6.02 µM in test [4]; over 10 µM in test [5].

Consider `C=C1C(=O)[C@@]23[C@H](O)C[C@@H]4C(C)(C)[C@@H](O)CC[C@@]4(C)[C@@H]2C[C@H](O)[C@@H]1[C@H]3O` [3-EPIPSEURATA B], for which the IC50 in test [1], in test [2], in test [3], in test [4] and in test [5] was over 10 µM throughout.

As for `C=C1[C@@H]2C(=O)C[C@H]3[C@@]4(C)[C@H](C[C@@H](O)[C@@]3([C@@H]1O)[C@@H]2O)C(C)(C)[C@@H](OC(C)=O)C[C@@H]4O` [DIHYDROPSEURATA F], the 50% inhibitory concentration (IC50) in test [1], in test [2], in test [3], in test [4] and in test [5] was over 10 µM in each case.

Regarding `C=C1C(=O)[C@@]23[C@H](O)C[C@@H]4C(C)(C)C(=O)CC[C@@]4(C)[C@@H]2CC[C@@H]1[C@H]3O` [GLAUCOCALYXIN A], the IC50 in test [1] is over 10 µM; in test [2], 2.9 µM; in test [3], over 10 µM; in test [4], 5.39 µM; in test [5], 8.73 µM.

For `C=C1C(=O)[C@@]23[C@H](O)C[C@@H]4C(C)(C)C(=O)CC[C@@]4(C)[C@@H]2CC[C@@H]1[C@H]3OC(C)=O` [GLAUCOCALYXIN B], the IC50 in test [1] is over 10 µM; in test [2] it was 7.86 µM; in test [3] it was over 10 µM; in test [4], 6.22 µM; in test [5] it was over 10 µM.

In the case of `C=C1C(=O)[C@@]23[C@H](O)C[C@@H]4C(C)(C)[C@@H](OC(C)=O)C[C@H](O)[C@@]4(C)[C@@H]2CC[C@@H]1[C@H]3O` [ISODOMEDIN], the IC50 is over 10 µM in test [1]; 7.29 µM in test [2]; over 10 µM in test [3]; over 10 µM in test [4]; over 10 µM in test [5].

Regarding `C=C1C(=O)[C@@]23[C@H](O)C[C@@H]4C(C)(C)[C@@H](OC(C)=O)CC[C@@]4(C)[C@@H]2CC[C@@H]1[C@H]3O` [LEUKAMENIN E], the IC50 in test [1] is over 10 µM; in test [2] it was 4 µM; in test [3] it was over 10 µM; in test [4], over 10 µM; in test [5] it was over 10 µM.

`C=C1C(=O)[C@@]23[C@H](O)C[C@@H]4C(C)(C)[C@@H](O)C[C@H](O)[C@@]4(C)[C@@H]2CC[C@@H]1[C@H]3O` [MINHERYIN G]: the IC50 in test [1], in test [2], in test [3], in test [4] and in test [5] was over 10 µM throughout.

For the compound `C=C1C(=O)[C@@]23C(CC[C@@H]1[C@H]2O)[C@]1(C)CC[C@@H](O)C(C)(C)[C@H]1C[C@H]3O` (stereo not given in full) [PSEURATA A], the IC50 is over 10 µM in test [1]; 7.69 µM in test [2]; over 10 µM in test [3]; 2.92 µM in test [4]; 9.05 µM in test [5].

Regarding `C=C1C(=O)[C@@]23[C@H](O)C[C@@H]4C(C)(C)[C@H](O)CC[C@@]4(C)[C@@H]2C[C@H](O)[C@@H]1[C@H]3O` [PSEURATA B], the IC50 in test [1], in test [2], in test [3], in test [4] and in test [5] was over 10 µM throughout.

`C=C1C(=O)[C@@]23[C@H](O)C[C@@H]4C(C)(C)[C@@H](OC(C)=O)CC[C@@]4(C)[C@@H]2CC(=O)[C@@H]1[C@H]3O` [PSEURATA C]: the IC50 was over 10 µM in test [1]; 2.08 µM in test [2]; over 10 µM in test [3]; 7.62 µM in test [4]; over 10 µM in test [5].

As for `C=C1C(=O)[C@@]23[C@H](O)C[C@@H]4C(C)(C)[C@@H](OC(C)=O)C[C@H](O)[C@@]4(C)[C@@H]2CC(=O)[C@@H]1[C@H]3O` [PSEURATA F], the 50% inhibitory concentration (IC50) in test [1], in test [2], in test [3], in test [4] and in test [5] was over 10 µM in each case.

On to `C=C1C(=O)[C@@]23C(CC[C@@H]1[C@H]2O)[C@]1(C)CC[C@H](O)C(C)(C)[C@H]1C[C@H]3O` (stereo not given in full) [WANGZAOZIN A], for which the IC50 in test [1] is over 10 µM; in test [2], 9.02 µM; in test [3] it was over 10 µM; in test [4] it was 9.29 µM; in test [5] it was 5.8 µM.
